Assay results published in article PMC10989020, “Preclinical characterization of a non-peptidomimetic HIV protease inhibitor with improved metabolic stability” (Antimicrobial Agents and Chemotherapy, 2024).
Read-outs that look alike come from different tables or passages of the source.

What was measured:
[1] = tested on: HIV-1LAI wild type and site-directed PR mutants; test: microbe, parasite or virus in culture; format: cell-based
[2] = Cytotoxicity in monocyte-derived macrophages; format: cell-based; details: human, uninfected (mock infected) monocyte-derived macrophages
Method: (§1) Compound cytotoxicity assessment in MT-4 cells, primary CD4+ T lymphocytes, and MDMs was carried out using a protocol identical to the antiviral assay except uninfected cells were used and tested with higher concentration ranges of test compounds. Assessment of cytotoxicity in additional human cell lines (Gal-PC3, Gal-HepG2, HEp-2, Huh-7, MRC-5, HepG2-NTCP, Huh7-Lunet HCV 1b and 2a replicons, NHBE, A549-hACE2) and primary human PBMCs (resting and stimulated with PHA/IL-2) and hepatocytes have been described previously ([19]). For all cytotoxicity assays, the CC50 value for puromycin was determined as a positive internal control and to assess assay sensitivity in each cell type. The effect of tested compounds on cell viability was measured using a CellTiter-Glo readout, performed according to the manufacturer’s recommendations.

[3] = tested on: panel of 49 patient-derived HIV-1 reporter viruses with PI resistance-associated substitutions; format: cell-based; details: for isolates with complete loss of activity: of 49 PI-resistant clinical isolates
[4] = Cytotoxicity in CD4+ T-lymphocytes; format: cell-based; details: human, uninfected (mock infected) primary CD4+ T lymphocytes
Method: as §1

[5] = Metabolic stability in human liver microsomes; format: in vitro ADME
HIV-1 IIIb = test: 5-day cytoprotection antiviral assay in MT-4 cells; format: cell-based
HIV-1 BaL [6] = test: p24 production antiviral assay in CD4+ T-lymphocytes; format: cell-based
Source text: (§2) Antiviral assays performed in HIV-1BaL infected CD4 +T-lymphocytes and monocyte-derived macrophages (MDMs) have been described previously ([18]). Cell-free supernatants derived from the CD4 +T cell and macrophage cultures were harvested 7- and 12-days post-infection, respectively, and the amount of HIV present was quantified by p24 antigen enzyme-linked immunosorbent assay (ELISA, Perkin Elmer, Waltham, MA) performed according to the manufacturer’s protocol.

HIV-1 BaL [7] = test: p24 production antiviral assay in monocyte-derived macrophages; format: cell-based
Source text: as §2

MT-4 T cell line = test: Cytotoxicity in uninfected MT-4 cells; format: cell-based, human; details: mock infected
Method: as §1

[8] = Cytotoxicity in uninfected MT-4 cells; format: cell-based, human; details: human, uninfected (mock infected) MT-4 T cells, MT-4 T cell line
Method: as §1

[9] = single oral dose co-administered with a pharmacological boosting agent; cited from earlier work
[10] = target: recombinant HIV-1 protease (Human immunodeficiency virus type 1 group M subtype B, UniProt P04585); test: biochemical
Method: For the HIV protease assay, recombinant HIV-1 protease expression, purification, and enzymatic assay using a fluorogenic readout were performed as previously described with some minor changes ([22]). […] After a 20-minute pre-incubation, the enzymatic reaction was initiated by the addition of the fluorogenic substrate to a final concentration of 40 µM and a final volume of 100 µL. The reaction was measured over 20 minutes on a Tecan Infinite M1000 plate reader using excitation and detection wavelengths of 320 nm and 420 nm, respectively.

HIV-1IIIb = test: Two-drug in vitro combination assay in MT-2 cells (MacSynergy II); format: cell-based; details: for Combination effect: pairwise combination with GS-9770; for Antagonism volume / Synergy volume: pairwise combination with GS-9770, 99% confidence, MT-2/HIV-1IIIb
Method: Anti-HIV-1 assays evaluating the in vitro antiviral effect of two-drug combinations were performed in MT-2 cells as previously described ([26]). Data were normalized to positive and negative controls in each plate and expressed as a percentage of protection from CPE-dependent cell death and analyzed with the MacSynergy II software. Combination data were analyzed at the 99% confidence level, with synergy/antagonism volumes defined as follows: high synergy (>100 µM^2%), moderate synergy (50 to <100 uM^2%), additivity (>−50 to <50 µM^2%), and antagonism (<−50 µM^2%).

[11] = tested on: 20 HIV-1 clinical isolates; test: Antiviral assay in PBMCs with HIV-1 clinical isolates (RT endpoint); format: cell-based; details: Human immunodeficiency virus 1, PBMC
Method: (§3) Antiviral assays using fresh human PBMCs independently infected with a panel of clinical HIV-1 and HIV-2 isolates were performed by Southern Research as a contracted research study and assessed 7 days post-infection using reverse transcriptase (RT) endpoint assay. Antiviral assays using HIV-1 reporter viruses containing patient-derived sequences encoding all of PR and a portion of RT (amino acids 1–313) and conferring resistance to FDA-approved HIV PIs were performed by Monogram Biosciences Inc. (South San Francisco, CA) using their previously described Phenosense assay ([25]).

two HIV-2 isolates = test: Antiviral assay in PBMCs with HIV-2 clinical isolates (RT endpoint); format: cell-based; details: Human immunodeficiency virus 2, PBMC, 168 h, 7-day, RT activity
Method: as §3

[12] = tested on: HIV-1 mutants resistant to NRTIs, NNRTIs, INSTIs
[13] = Cytotoxicity in Gal-HepG2; format: cell-based; details: human, Gal-HepG2 cells
Method: as §1

Cytotoxicity in MRC-5 = format: cell-based; details: human, MRC-5 cells
Method: as §1

[14] = Cytotoxicity across human cell types (summary ranges); format: cell-based; details: human, human cell lines and primary cells (all cell types tested); across all of the cell types tested; read-out: mean CC50 range
Method: as §1

Cytotoxicity in HEp-2 = format: cell-based; details: human, HEp-2 cells
Method: as §1

[15] = Cytotoxicity in unstimulated PBMCs; format: cell-based; details: human, unstimulated (resting) PBMCs
Method: as §1

Cytotoxicity in Huh-7 = format: cell-based; details: human, Huh-7 cells
Method: as §1

Cytotoxicity in Gal-PC3 = format: cell-based; details: human, Gal-PC3 cells
Method: as §1

[16] = Cytotoxicity in stimulated PBMCs; format: cell-based; details: human
Method: as §1

[17] = Cytotoxicity in primary human hepatocytes; format: cell-based
Method: as §1

[18] = Human immunodeficiency virus 1, PR L24I M46L A77I V82A
[19] = Human immunodeficiency virus 1, PR L24I M46L I64V A77I V82A
[20] = Human immunodeficiency virus 1, PR M46L A77I V82A
[21] = Human immunodeficiency virus 1, PR V82A
[22] = Human immunodeficiency virus 1, Wild type (WT) HIV-1LAI

COC(=O)N[C@H](C(=O)N[C@@H](Cc1ccccc1)[C@@H](O)CN(Cc1ccc(-c2ccccn2)cc1)NC(=O)[C@@H](NC(=O)OC)C(C)(C)C)C(C)(C)C [ATV, atazanavir]
EC50 [1, 18]: 4.2 ± 0.8 nM
EC50 [1, 19]: 11.7 ± 1.4 nM
EC50 [1, 20]: 6.9 ± 1.8 nM
EC50 [1, 21]: 7.6 ± 3.3 nM
EC50 [1, 22]: 5.7 ± 3.6 nM
fold-change relative to WT ([1]; PR L24I M46L A77I V82A): 0.7 fold
fold-change relative to WT ([1]; PR L24I M46L I64V A77I V82A): 2.1 fold
fold-change relative to WT ([1]; PR M46L A77I V82A): 1.2 fold
fold-change relative to WT ([1]; PR V82A): 1.3 fold
fold-change relative to WT ([1]; Wild type (WT) HIV-1LAI): 1.0 fold
CC50 [2]: > 50000 nM
data points with fold change in EC50 above limit [3]: five
mean fold change (FC) in EC50 vs wild-type HIV-1 (geometric mean) ([3]; 49 PI-resistant reporter viruses): 9.1 fold
isolates with complete loss of activity [3]: 3
isolates with greater than 10-fold loss in susceptibility ([3]; of 49 isolates, cutoff 10-fold): 16
CC50 [4]: > 50000 nM
Eh% (percent predicted hepatic extraction) [5]: 63%
Predicted CL (predicted human clearance) [5]: 13 mL/min/kg
half-life ([5]; read-out: T½ in the presence of human liver microsomes): 24 min
EC50 (HIV-1 IIIb; Human immunodeficiency virus 1, IIIB, T-cell, 120 h): 11 ± 3 nM
SI (CC50/EC50 ratio) (HIV-1 IIIb; MT-4 T cell line): 4,700
95% effective concentration (EC95) (HIV-1 IIIb; calculated from MT-4/HIV-1IIIb EC50 and Hill coefficient): 19.5 nM
SI (CC50/EC50 ratio) (HIV-1 BaL [6]): >12,000
EC50 (HIV-1 BaL [6]; Human immunodeficiency virus 1, T-lymphocyte, HIV-1BaL infected): 4.3 ± 1.9 nM
SI (CC50/EC50 ratio) (HIV-1 BaL [7]): >3,100
EC50 (HIV-1 BaL [7]; Human immunodeficiency virus 1, Macrophage, HIV-1BaL infected): 16 ± 12 nM
CC50 (MT-4 T cell line): 51000 ± 8000 nM
CC50 [8]: > 50000 nM
plasma half-life in humans [9]: 516 min
Ki [10]: 0.023 nM

O=C(NCc1c(F)cc(F)cc1F)c1cn2c(c(O)c1=O)C(=O)N1[C@H]3CC[C@H](C3)O[C@@H]1C2 [BIC, bictegravir]
Combination effect (HIV-1IIIb): Highly synergistic
Antagonism volume (HIV-1IIIb): −11 ± 13 µM^2.%
Synergy volume (HIV-1IIIb): 156 ± 49 µM^2.%

CC(C)CN(C[C@@H](O)[C@H](Cc1ccccc1)NC(=O)O[C@H]1CO[C@H]2OCC[C@H]21)S(=O)(=O)c1ccc(N)cc1 [DRV, darunavir]
EC50 ([11]; 168 h, read-out: mean EC50): 3.2 nM
EC50 ([11]; read-out: EC50 range): 0.8 to 9.2 nM
isolates with complete loss of activity [3]: 5
EC50 (two HIV-2 isolates): 8.5 nM

O=C1Nc2ccc(Cl)cc2[C@@](C#CC2CC2)(C(F)(F)F)O1 [EFV, efavirenz]
EC50 [1, 18]: 1.1 ± 0.1 nM
EC50 [1, 19]: 1 ± 0.2 nM
EC50 [1, 20]: 1 ± 0.2 nM
EC50 [1, 21]: 1.2 ± 0.6 nM
EC50 [1, 22]: 1.3 ± 0.7 nM
fold-change relative to WT ([1]; PR L24I M46L A77I V82A): 0.9 fold
fold-change relative to WT ([1]; PR L24I M46L I64V A77I V82A): 0.8 fold
fold-change relative to WT ([1]; PR M46L A77I V82A): 0.8 fold
fold-change relative to WT ([1]; PR V82A): 1.0 fold
fold-change relative to WT ([1]; Wild type (WT) HIV-1LAI): 1.0 fold
Fold resistance (mutant/wildtype EC50 ratio) ([12]; K103N): 14 ± 12
Fold resistance (mutant/wildtype EC50 ratio) ([12]; K103N+Y181C): 11 ± 5
Fold resistance (mutant/wildtype EC50 ratio) ([12]; L100I+K103N): >30
Fold resistance (mutant/wildtype EC50 ratio) ([12]; Y181C): 3.5 ± 0.6
Fold resistance (mutant/wildtype EC50 ratio) ([12]; Y188L): >30

COc1cc2c(cc1Cc1cccc(Cl)c1F)c(=O)c(C(=O)O)cn2[C@H](CO)C(C)C [EVG, elvitegravir]
Fold resistance (mutant/wildtype EC50 ratio) ([12]; E92Q+N155H): >50
Fold resistance (mutant/wildtype EC50 ratio) ([12]; E138K+Q148K): >50
Fold resistance (mutant/wildtype EC50 ratio) ([12]; G140S+Q148R): >50
Fold resistance (mutant/wildtype EC50 ratio) ([12]; Q148+N155H): >50

Nc1nc(=O)n([C@@H]2CS[C@H](CO)O2)cc1F [FTC, emtricitabine]
Fold resistance (mutant/wildtype EC50 ratio) ([12]; 6TAMs): 23 ± 21
Fold resistance (mutant/wildtype EC50 ratio) ([12]; K65R): 12 ± 6
Fold resistance (mutant/wildtype EC50 ratio) ([12]; M184V): >141
Combination effect (HIV-1IIIb): Highly synergistic
Antagonism volume (HIV-1IIIb): −8 ± 11 µM^2.%
Synergy volume (HIV-1IIIb): 139 ± 24 µM^2.%

CC(C)(C#Cc1ccc(-c2ccc(Cl)c3c(NS(C)(=O)=O)nn(CC(F)(F)F)c23)c([C@H](Cc2cc(F)cc(F)c2)NC(=O)Cn2nc(C(F)(F)F)c3c2C(F)(F)[C@@H]2C[C@H]32)n1)S(C)(=O)=O [LEN, lenacapavir]
Combination effect (HIV-1IIIb): Highly synergistic
Antagonism volume (HIV-1IIIb): −0.6 ± 1.7 µM^2.%
Synergy volume (HIV-1IIIb): 201 ± 111 µM^2.%

COc1ccc(C[C@H](N)C(=O)N[C@H]2[C@@H](O)[C@H](n3cnc4c(N(C)C)ncnc43)O[C@@H]2CO)cc1 [Puromycin, puromycin]
CC50 [13]: 1400 ± 800 nM
CC50 (Cytotoxicity in MRC-5): 310 ± 200 nM
CC50 [14]: 310 to 1600 nM
CC50 (Cytotoxicity in HEp-2): 600 ± 300 nM
CC50 [15]: 540 ± 210 nM
CC50 (Cytotoxicity in Huh-7): 800 ± 700 nM
CC50 (Cytotoxicity in Gal-PC3): 450 ± 170 nM
CC50 [16]: 800 ± 150 nM
CC50 [17]: 1600 ± 200 nM

Cc1cc(/C=C/C#N)cc(C)c1Nc1ccnc(Nc2ccc(C#N)cc2)n1 [RPV, rilpivirine]
Combination effect (HIV-1IIIb): Highly synergistic
Antagonism volume (HIV-1IIIb): 0 ± 0 µM^2.%
Synergy volume (HIV-1IIIb): 184 ± 65 µM^2.%

CC(C)OC(=O)[C@H](C)N[P@](=O)(CO[C@H](C)Cn1cnc2c(N)ncnc21)Oc1ccccc1 [TAF, tenofovir alafenamide]
Combination effect (HIV-1IIIb): Highly synergistic
Antagonism volume (HIV-1IIIb): −4 ± 7 µM^2.%
Synergy volume (HIV-1IIIb): 166 ± 51 µM^2.%
